Marks after values point to notes of the source that are not given here.
Tests used:
SW620 = assay: cells; details: Homo sapiens, SW-620, 72 h
Experimental: Human intestinal cancer cell strains SW620 and HCT-8, which had been incubated for 24 hours, were respectively incubated in a medium containing 0.8 mM of trisodium fructose-1,6-bisphosphate, a medium containing 0.2 mM of metformin/100 μM of sitagliptin, and a medium containing 0.8 mM of trisodium fructose-1,6-bisphosphate and 0.2 mM of metformin/100 μM of sitagliptin for 72 h. A control group (Con) was not treated with the agent. Cell viability was determined by Sulforhodamine B (SRB) staining analysis method.

melanoma B16 cell = assay: Cell viability, Sulforhodamine B (SRB) staining; details: Mus musculus, B16, 72 h
Experimental: Mouse melanoma B16 cells, which had been incubated for 24 hours, were incubated in a medium containing 0.8 mM of trisodium fructose-1,6-bisphosphate, a medium containing 20 μM of sitagliptin, and a medium containing 0.8 mM of trisodium fructose-1,6-bisphosphate and 20 μM of sitagliptin for 72 h. A control group (Con) was not treated with the agent. Cell viability was determined by Sulforhodamine B (SRB) staining analysis method.

U87MG [1] = assay: Tricarboxylic acid circulation intermediates in cytoplasm and mitochondria (LC-MS/MS); type: cell-based, human; details: 1.6 mM, 36 h
Experimental: Human glioma cell strain (U87MG) was cultured in a medium containing 1.6 mM of trisodium fructose-1,6-bisphosphate for 36 h, and then cytoplasm and mitochondria were separated. Levels of tricarboxylic acid circulation intermediates in cytoplasm and mitochondria were respectively measured by LC-MS/MS.

glioma cells SHG-44 = assay: Lactic acid released by glioma cells (glycolysis); type: cell-based, human
Experimental: (§1) Human glioma cell strains (U87-MG, KNS-89, SHG-44) were respectively incubated in culture media containing 0.8 mM of trisodium fructose-1,6-bisphosphate salt, and 1.6 mM of trisodium fructose-1,6-bisphosphate salt, and 1.6 mM of 2-deoxyglucose, and the contents of lactic acid as the final glycolytic product released by the cells in the culture media were measured after 12 h, 24 h, 36 h, and 48 h. […] Human glioma cell strain (U87-MG) was incubated in the culture medium containing 0.8 mM of trisodium fructose-1,6-bisphosphate salt for 1 h, 3 h, 6 h, 12 h, 24 h, 36 h, and 48 h, and level changes of key metabolic enzymes in the glycolytic pathway of cells were measured by Western Blot at the respective time points.

glioma cells KNS-89 = assay: Lactic acid released by glioma cells (glycolysis); type: cell-based, human
Experimental: as §1

U87MG [2] = assay: 13C-glucose tracing: glycolysis, pentose phosphate, one-carbon and nucleic acid synthesis intermediates (LC-MS/MS); type: cell-based, human; details: 1.6 mM, 36 h
Experimental: Human glioma cell strain (U87MG) was incubated in a medium containing ^13C-labeled glucose (U-^13C-Glc) and treated with 1.6 mM of trisodium fructose-1,6-bisphosphate for 36 h, and then, intermediate products of intracellular glycolysis pathway, pentose phosphate pathway, “one-carbon unit” metabolic pathway, and nucleic acid de novo synthesis pathway were measured using liquid-mass spectrometry (LC-MS/MS).

U87-MG = assay: Western Blot of key glycolytic enzymes; type: cell-based, human; details: 0.8 mM, 1 h to 48 h
Experimental: as §1

[3] = test system: peripheral neuralgia induced by paclitaxel; assay: Peripheral neuralgia induced by paclitaxel, hot plate experiment; type: in vivo, ICR mice
Experimental: In this study, paclitaxel (2.8 mg/kg, 10 ml/kg) was injected intraperitoneally every other day, 4 times in total (days 1, 3, 5, 7) to induce peripheral neuralgia model in ICR female mice with a body weight of 20-24 g, and this model was used to observe the preventive effect of fructose-1,6-bisphosphate on the peripheral neuralgia caused by the chemotherapeutic agent. The paclitaxel antitumor agent is one of the first-line agents for human malignant tumors. Dose-limiting toxicity of paclitaxel mainly includes neurotoxicity and myelosuppression, the latter has been successfully overcome by using granulocyte colony-stimulating factor. However, the neurotoxicity, behaving as neuropathic pain, is still a worldwide problem, because the pain caused by this chemotherapy is not sensitive to any clinically used analgesics, and thus some patients have to reduce the dose until withdrawing the agent, which seriously affects the effect of the chemotherapy or even causes a failure of the chemotherapy. Some pains caused by the paclitaxel chemotherapy may not be eliminated immediately after the agent withdrawal, and often continues for months or even years, which seriously affects the life quality of tumor patients. In view of this, the peripheral neuralgia caused by paclitaxel is a representative pain after cancer treatment, and the animal pain model induced by paclitaxel is also representative.
A hot plate method was used to screen mice having relatively uniform heat-sensitive responses for experiments. […]
The heat-sensitive response of hind paws of the mice was measured with a hot plate experiment (52° C.±0.3) at 2 pm to 4 pm every day. […] In this way, a latent period of licking or retracting the hind paws was recorded. […] After the paclitaxel injection finished, the fructose-1,6-bisphosphate was continuously administrated and the heat-sensitive responses of the animals in each group were measured. […]

U87MG [4] = assay: 13C-glucose tracing: tricarboxylic acid circulation intermediates, derived amino acids, nucleotide synthesis (LC-MS/MS); type: cell-based, human; details: 1.6 mM, 36 h
Experimental: Human glioma cell strain (U87MG) was incubated in a medium containing ^13C-labeled glucose (U-^13C-Glc) and treated with 1.6 mM of trisodium fructose-1,6-bisphosphate for 36 h, and then using liquid-mass spectrometry (LC-MS/MS), intracellular tricarboxylic acid circulation intermediates, tricarboxylic acid circulation intermediates-derived amino acids and nucleotide de novo synthesis pathway intermediates were measured.

KNS-89 = assay: Intracellular glycolytic intermediates (LC-MS/MS); type: cell-based, human; details: KNS-89, 1.6 mM, 36 h
[5] = read-out: cell viability (Con = 100)
[6] = read-out: cell viability inhibited

O=C(COP(=O)(O)O)[C@@H](O)[C@H](O)[C@H](O)COP(=O)(O)O [FBP, fructose-1,6-bisphosphate]
viability at 800 µM (SW620; [5]): 49.9 ± 3.91% | cytotoxicity at 800 µM (SW620; [6]): 41% | viability at 800 µM (melanoma B16 cell; [5]): 77.7 ± 7.29% | cytotoxicity at 800 µM (melanoma B16 cell; [6]): 22% | Relative level of Ac-CoA (compared with the control group) (U87MG [1]; cytoplasm): 0.02 ± 0.01 | Relative level of Cit (compared with the control group) (U87MG [1]; cytoplasm): 0.28 ± 0.01 | Relative level of OAA (compared with the control group) (U87MG [1]; cytoplasm): 0.19 ± 0.01 | Relative level of α-KG (compared with the control group) (U87MG [1]; cytoplasm): 1.20 ± 0.12*^ | Relative level of Ac-CoA (compared with the control group) (U87MG [1]; mitochondria): 1.38 ± 0.11 | Relative level of Cit (compared with the control group) (U87MG [1]; mitochondria): 1.02 ± 0.06 | Relative level of OAA (compared with the control group) (U87MG [1]; mitochondria): 2.02 ± 0.13 | Relative level of α-KG (compared with the control group) (U87MG [1]; mitochondria): 2.42 ± 0.04 | Relative levels of lactic acid (compared with the control group) (glioma cells SHG-44; SHG-44, 0.8 mM, 12 h): 1.06 ± 0.05 | Relative levels of lactic acid (compared with the control group) (glioma cells SHG-44; SHG-44, 0.8 mM, 24 h): 0.87 ± 0.01 | Relative levels of lactic acid (compared with the control group) (glioma cells SHG-44; SHG-44, 0.8 mM, 36 h): 0.83 ± 0.05 | Relative levels of lactic acid (compared with the control group) (glioma cells SHG-44; SHG-44, 1.6 mM, 12 h): 0.89 ± 0.09 | Relative levels of lactic acid (compared with the control group) (glioma cells SHG-44; SHG-44, 1.6 mM, 24 h): 0.75 ± 0.07 | Relative levels of lactic acid (compared with the control group) (glioma cells SHG-44; SHG-44, 1.6 mM, 36 h): 0.58 ± 0.06 | Relative levels of lactic acid (compared with the control group) (glioma cells KNS-89; KNS-89, 0.8 mM, 12 h): 0.75 ± 0.11 | Relative levels of lactic acid (compared with the control group) (glioma cells KNS-89; KNS-89, 0.8 mM, 24 h): 0.94 ± 0.16 | Relative levels of lactic acid (compared with the control group) (glioma cells KNS-89; KNS-89, 0.8 mM, 36 h): 0.78 ± 0.09 | Relative levels of lactic acid (compared with the control group) (glioma cells KNS-89; KNS-89, 1.6 mM, 12 h): 0.87 ± 0.03 | Relative levels of lactic acid (compared with the control group) (glioma cells KNS-89; KNS-89, 1.6 mM, 24 h): 0.83 ± 0.20 | Relative levels of lactic acid (compared with the control group) (glioma cells KNS-89; KNS-89, 1.6 mM, 36 h): 0.62 ± 0.10 | glycine (Gly) (M+2) produced by serine, relative to control group 1 (U87MG [2]): 0.63±0.06 | serine (Ser) (M+3) produced by U-13C-Glc, relative to control group 1 (U87MG [2]): 1.57±0.04 | Proportions of 13C-labeled ribose in free nucleosides and nucleotides, column F6P (U87MG [2]; CON 13.03 ± 0.38): 2.79 ± 0.14 | Proportions of 13C-labeled ribose in free nucleosides and nucleotides, column GAP (U87MG [2]; CON 31.97 ± 1.11): 11.31 ± 1.75 | Proportions of 13C-labeled ribose in free nucleosides and nucleotides, column FBP (U87MG [2]; CON 41.00 ± 4.28): 34.99 ± 1.63 | Proportions of 13C-labeled ribose in free nucleosides and nucleotides, column PEP (U87MG [2]; CON 59.40 ± 1.11): 13.71 ± 0.54 | Proportions of 13C-labeled ribose in free nucleosides and nucleotides, column Lac (U87MG [2]; CON 61.60 ± 1.95): 30.70 ± 2.11 | proportion of the 13C-labeled 5-phosphate ribose (R5P) (U87MG [2]; control group 68.96±5.03%): 17.32±1.23% | Relative level of F6P (compared with the control group) (U87MG [2]; U-13C-Glc): 2.06 ± 0.04 | Relative level of FBP (compared with the control group) (U87MG [2]; U-13C-Glc): 5.01 ± 0.34 | Relative level of GAP (compared with the control group) (U87MG [2]; U-13C-Glc): 4.27 ± 0.07 | Relative level of Lac (compared with the control group) (U87MG [2]; U-13C-Glc): 1.06 ± 0.02 ^N.S. | Relative level of PEP (compared with the control group) (U87MG [2]; U-13C-Glc): 8.00 ± 0.32 | levels of HK2, PFKFB3, PKM2 and LDH5 (Western Blot) (U87-MG): quickly and continuously down-regulated | hind paw retraction latent period (hot plate 52° C.) ([3]; 400 mg/kg ig once per day, day 7 and any later time point, vs model group): significantly longer | efficacy against peripheral neuralgia over treatment duration ([3]; high-dose FBP (400 mg/kg)): gradually disappears | efficacy against peripheral neuralgia over treatment duration ([3]; low-dose FBP (200 mg/kg)): gradually increases | Relative level of Asp (compared with the control group) (U87MG [4]): 0.16 ± 0.07 | Relative level of Glu (compared with the control group) (U87MG [4]): 0.35 ± 0.04 | Relative level of OAA (compared with the control group) (U87MG [4]): 1.87 ± 0.04 | Relative level of α-KG (compared with the control group) (U87MG [4]): 1.61 ± 0.01 | Proportion of 13C-labeled purine/pyrimidine ring in A (U87MG [4]; CON 12.41 ± 1.19): 7.70 ± 1.50 | Proportion of 13C-labeled purine/pyrimidine ring in U (U87MG [4]; CON 20.58 ± 2.30): 8.33 ± 0.90 | Proportion of 13C-labeled purine/pyrimidine ring in ATP (U87MG [4]; CON 38.26 ± 1.50): 23.77 ± 0.57 | Proportion of 13C-labeled purine/pyrimidine ring in UTP (U87MG [4]; CON 50.67 ± 0.96): 18.19 ± 0.87 | Proportion of 13C-labeled purine/pyrimidine ring in G (U87MG [4]; CON 53.75 ± 1.47): 41.83 ± 4.06 | Increase folds of intracellular DHAP (compared with the control group) (KNS-89): 8.74 folds | Increase folds of intracellular F6P (compared with the control group) (KNS-89): 1.89 folds | Increase folds of intracellular FBP (compared with the control group) (KNS-89): 21.97 folds | Increase folds of intracellular GAP (compared with the control group) (KNS-89): 19.75 folds | Increase folds of intracellular PGA (compared with the control group) (KNS-89): 3.28 folds
